Where a name gives a salt, the structure may show the parent alone.
Tests used:
trachée isolée de cobaye = assay: Action on isolated guinea pig trachea (carbachol-induced contractions); format: cell-based; details: Cavia porcellus; product at 3.10^-6M; carbachol 0,4µ/ml; Krebs Henseleit solution, 37°C; read-out: antagonise les contractions provoquées par le carbachol
Procedure: 1) Action sur la trachée isolée de cobaye
On prélève les trachées de cobaye que l'on vient de sacrifier par un coup sur la nuque, les trachées sont découpées en spirale et suspendues dans une solution de Krebs Henseleit, à la température de 37°C dans laquelle barbote un mélange de 95 % d'oxygène et 5 % de gaz carbonique.
On ajoute dans la solution du carbachol comme agoniste pour provoquer des contractions.
Le produit de l'exemple 1 à la concentration de 3.10^-6M, antagonise de 100 % les contractions provoquées par le carbachol à la concentration de 0,4µ/ml.

[1] = system: bronchospasme provoqué par l'histamine; assay: Action on histamine-induced bronchospasm in the guinea pig (Konzett and Rossler method); format: in vivo, cobaye; details: 1µg/kg i.v. one minute before histamine (2 à 10µg/kg i.v.)
Procedure: -2) Action sur le bronchospasme provoqué par l'histamine chez le cobaye
Suivant la méthode de Konzett et Rossler Arch. exp. Path. Pharmakol. 195 71 (1940), de l'histamine est administrée à une dose variant de 2 à 10µg/kg i.v. selon la sensibilité de l'animal.
L'enregistrement de la pression produite par l'air expulsé est effectué à l'aide d'un microdynamomètre Apelab.
Le produit à tester est injecté en solution dans le sérum physiologique par voie i.v. une minute avant l'histamine.
On enregistre un éventuel effet du produit seul et son action antagoniste vis-à-vis de l'agent constricteur.
L'activité antagoniste est exprimée en pourcentage de protection par rapport au bronchospasme initial dû à l'histamine.

[2] = system: pression artérielle carotidienne; assay: Hypotensive activity in anaesthetised rats (carotid arterial pressure); format: in vivo, rats mâles de souche Sprague Dawley S.P.F.; details: rats anaesthetised with nembutal
Procedure: 3) Déterminiation de l'activité hypotensive
L'activité hypotensive a été étudiée sur des rats mâles de souche Sprague Dawley S.P.F. pesant 300 g environ et anesthésiés au nembutal (50 mg/kg par voie intraveineuse).
Le produit testé a été administré par voie intraveineuse dans la veine jugulaire.
La pression artérielle carotidienne a été mesurée avant et après administration du produit testé.
Le tableau ci-après indique les variations exprimées en pourcentage de la pression artérielle, après administration du produit testé par rapport à la pression artérielle initiale ainsi que le temps pendant lequel se manifestent ces variations.

souris = assay: Acute toxicity, intraperitoneal, mouse; format: in vivo; details: mortality recorded 48 hours after administration
Excerpt: 5) Etude de la toxicité aigüe
On évalue les doses létales 50 (DL 50) des produits après administration par voie intrapéritonéale chez la souris.
La mortalité est relevée quarante-huit heures après l'administration des produits.

[3] = system: Hypothermie à la réserpine; assay: Antidepressant activity: reserpine hypothermia; format: in vivo, souris mâles; details: 10 mg/kg I.P; reserpine 4 mg/kg intraperitoneal; rectal temperature measured for 5 hours
Procedure: (§1) 6) Détermination de l'activité antidénpressive
a) Hypothermie à la réserpine
Le test est effectué sur un lot de 10 souris mâles auxquelles on administre par voie intrapéritonéale 4 mg/kg de réserpine.
La température rectale des animaux est mesurée pendant 5 heures à l'aide d'un thermomètre électrique.

[4] = system: Hypothermie à l'apomorphine; assay: Antidepressant activity: apomorphine hypothermia; format: in vivo, souris mâles; details: Mus musculus, ip; intraperitoneal, before apomorphine hydrochloride 16 mg/kg intraperitoneal; rectal temperature; read-out: DE 50 (dose qui réduit de 50 % l'écart de température observé entre les témoins)
Procedure: as §1
b) Hypothermie à l'apomorphine
Le test est effectué sur un lot de 10 souris mâles.
On induit chez les animaux une hypothermie par injection intrapéritonéale de 16 mg/kg de chlorhydrate d'apomorphine. Le composé testé est administré par voie intrapéritonéale 30 mm avant l'injection d'apomorphine; la température rectale des animaux est mesurée 30 mm après l'injection d'apomorphine.
Des animaux témoins reçoivent soit du soluté physiologique, soit de l'apomorphine; on mesure l'écart de température entre les témoins ayant reçu le soluté physiologique, les témoins ayant reçu l'apomorphine seule et les animaux ayant reçu l'apomorphine et le composé testé.
On appelle DE 50 la dose de composé qui réduit de 50 % l'écart de température observé entre les témoins, […]

SMILES | inhibition at 3 µM (trachée isolée de cobaye) [%] | inhibition de la broncho constriction à l'histamine (pourcentage de protection par rapport au bronchospasme initial) ([1]; listed as exemple 1) [%] | Variations % de la pression artérielle ([2]; 1 mg/kg intravenous (jugular vein), relative to initial pressure) [%] | Durée d'action ([2]; 1 mg/kg intravenous) [min] | dose létale 50 (DL 50) (souris; listed as exemple 1, 2880 min) [mg/kg] | apparition de l'hypothermie provoquée par la réserpine [3] | ED50 [4] [mg/kg] | inhibition de la broncho constriction à l'histamine (pourcentage de protection par rapport au bronchospasme initial) ([1]; listed as exemple 3) [%] | dose létale 50 (DL 50) (souris; listed as exemple 3, 2880 min) [mg/kg]
Oc1ccc(C(O)C2CCCN2)cc1O (single isomer, unassigned) [Exemple 1, Oxalate acidede 4-[α-hydroxy(pyrrolidin-2-yl)méthyl]1,2-benzène diol (isomère A)] | 100 | 52 | -35 | >65 | 250 | retarde l'apparition de l'hypothermie provoquée par la réserpine | 25 |  | 
Oc1ccc(C(O)C2CCCN2)cc1O (single isomer, unassigned) [Exemple 3, Chlorhydrate du 4-/α-hydroxy(pyrrolidin-2-yl) méthyl/1,2-benzène diol (isomère B)] |  |  |  |  |  |  |  | 17 | 40

Source: patent EP0022408A1, “Derivatives of alpha-phenyl-2-pyrrolidine methanol and their salts, process for their preparation, use as medicines and compositions containing them” (ROUSSEL-UCLAF, priority 1979, dated 1981)
